Measured values from the supplement of paper PMC11665569.

Tests used:
Conditions in all cases: treatment time: 5 days
MIAPACA2 [1] = assay: relative viability (fraction of vehicle control); higher = more viable / less inhibited
Description: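 CCK-8 viability of MIAPACA2 cells with empty vector or constitutively active YAP S127A, treated with KRAS G12C inhibitors for 5 days, normalised to vehicle control.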

SW1573 = system: SW1573
Description: (§1)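 CCK-8 viability of KRAS G12C-mutant cancer cell lines transfected with control, YAP/TAZ or TEAD1-4 siRNAs and treated with KRAS G12C inhibitors for 5 days; IC50 fitted in Prism after normalising absorbance at 450 nm to vehicle control.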

MIAPACA2 [2] = system: MIAPACA2
Description: as §1

KYSE410 = system: KYSE410
Description: as §1

H358 = system: H358
Description: as §1

H1373 = system: H1373
Description: as §1

H2030 [3] = system: H2030
Description: as §1

H2030 [4] = assay: relative viability (fraction of vehicle control); higher = more viable / less inhibited
Description: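 CCK-8 viability of H2030 cells transfected with control, YAP/TAZ or TEAD1-4 siRNAs and treated with KRAS G12C inhibitors for 5 days. Values are normalised to vehicle control.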

C=CC(=O)N1CCN(c2ncnc3c(F)c(-c4c(O)cccc4F)c(Cl)cc23)CC1 [ARS1620]
Conditions | IC50 (cell viability, 5 days) [nM] | relative viability
H358, siRNA knockdown (Con = control): Con | 400 | –
H358, siRNA knockdown (Con = control): TEAD1234_si1 | 366 | –
H358, siRNA knockdown (Con = control): TEAD1234_si2 | 228 | –
H358, siRNA knockdown (Con = control): YAP_WWTR1_si1 | 183 | –
H358, siRNA knockdown (Con = control): YAP_WWTR1_si2 | 135 | –
H1373, siRNA knockdown (Con = control): Con | 1950 | –
H1373, siRNA knockdown (Con = control): YAP_WWTR1_si1 | 580 | –
H1373, siRNA knockdown (Con = control): YAP_WWTR1_si2 | 305 | –
H2030 [3], siRNA knockdown (Con = control): Con | 9870 | –
H2030 [3], siRNA knockdown (Con = control): TEAD1234_si1 | 1050 | –
H2030 [3], siRNA knockdown (Con = control): TEAD1234_si2 | 237 | –
H2030 [4], log10 concentration (uM): 0, siRNA knockdown: TEAD1-4 siRNA 1 | – | 0.502
H2030 [4], log10 concentration (uM): 0, siRNA knockdown: TEAD1-4 siRNA 2 | – | 0.522
H2030 [4], log10 concentration (uM): 0, siRNA knockdown: YAP/TAZ siRNA 1 | – | 0.521
H2030 [4], log10 concentration (uM): 0, siRNA knockdown: YAP/TAZ siRNA 2 | – | 0.482
H2030 [4], log10 concentration (uM): 0, siRNA knockdown: negative control siRNA | – | 0.948
H2030 [4], log10 concentration (uM): 0.39794, siRNA knockdown: TEAD1-4 siRNA 1 | – | 0.429
H2030 [4], log10 concentration (uM): 0.39794, siRNA knockdown: TEAD1-4 siRNA 2 | – | 0.365
H2030 [4], log10 concentration (uM): 0.39794, siRNA knockdown: YAP/TAZ siRNA 1 | – | 0.499
H2030 [4], log10 concentration (uM): 0.39794, siRNA knockdown: YAP/TAZ siRNA 2 | – | 0.448
H2030 [4], log10 concentration (uM): 0.39794, siRNA knockdown: negative control siRNA | – | 0.927
H2030 [4], log10 concentration (uM): 0.69897, siRNA knockdown: TEAD1-4 siRNA 1 | – | 0.257
H2030 [4], log10 concentration (uM): 0.69897, siRNA knockdown: TEAD1-4 siRNA 2 | – | 0.256
H2030 [4], log10 concentration (uM): 0.69897, siRNA knockdown: YAP/TAZ siRNA 1 | – | 0.369
H2030 [4], log10 concentration (uM): 0.69897, siRNA knockdown: YAP/TAZ siRNA 2 | – | 0.386
H2030 [4], log10 concentration (uM): 0.69897, siRNA knockdown: negative control siRNA | – | 0.874
H2030 [4], log10 concentration (uM): 1, siRNA knockdown: TEAD1-4 siRNA 1 | – | 0.151
H2030 [4], log10 concentration (uM): 1, siRNA knockdown: TEAD1-4 siRNA 2 | – | 0.168
H2030 [4], log10 concentration (uM): 1, siRNA knockdown: YAP/TAZ siRNA 1 | – | 0.216
H2030 [4], log10 concentration (uM): 1, siRNA knockdown: YAP/TAZ siRNA 2 | – | 0.261
H2030 [4], log10 concentration (uM): 1, siRNA knockdown: negative control siRNA | – | 0.742
H2030 [4], log10 concentration (uM): 1.301029996, siRNA knockdown: TEAD1-4 siRNA 1 | – | 0.0456
H2030 [4], log10 concentration (uM): 1.301029996, siRNA knockdown: TEAD1-4 siRNA 2 | – | 0.0819
H2030 [4], log10 concentration (uM): 1.301029996, siRNA knockdown: YAP/TAZ siRNA 1 | – | 0.114
H2030 [4], log10 concentration (uM): 1.301029996, siRNA knockdown: YAP/TAZ siRNA 2 | – | 0.14
H2030 [4], log10 concentration (uM): 1.301029996, siRNA knockdown: negative control siRNA | – | 0.217
H2030 [4], log10 concentration (uM): -0.30103, siRNA knockdown: TEAD1-4 siRNA 1 | – | 0.562
H2030 [4], log10 concentration (uM): -0.30103, siRNA knockdown: TEAD1-4 siRNA 2 | – | 0.478
H2030 [4], log10 concentration (uM): -0.30103, siRNA knockdown: YAP/TAZ siRNA 1 | – | 0.627
H2030 [4], log10 concentration (uM): -0.30103, siRNA knockdown: YAP/TAZ siRNA 2 | – | 0.641
H2030 [4], log10 concentration (uM): -0.30103, siRNA knockdown: negative control siRNA | – | 0.985
H2030 [4], log10 concentration (uM): -0.60206, siRNA knockdown: TEAD1-4 siRNA 1 | – | 0.646
H2030 [4], log10 concentration (uM): -0.60206, siRNA knockdown: TEAD1-4 siRNA 2 | – | 0.616
H2030 [4], log10 concentration (uM): -0.60206, siRNA knockdown: YAP/TAZ siRNA 1 | – | 0.695
H2030 [4], log10 concentration (uM): -0.60206, siRNA knockdown: YAP/TAZ siRNA 2 | – | 0.731
H2030 [4], log10 concentration (uM): -0.60206, siRNA knockdown: negative control siRNA | – | 0.992
H2030 [4], log10 concentration (uM): -1, siRNA knockdown: TEAD1-4 siRNA 1 | – | 0.742
H2030 [4], log10 concentration (uM): -1, siRNA knockdown: TEAD1-4 siRNA 2 | – | 0.639
H2030 [4], log10 concentration (uM): -1, siRNA knockdown: YAP/TAZ siRNA 1 | – | 0.753
H2030 [4], log10 concentration (uM): -1, siRNA knockdown: YAP/TAZ siRNA 2 | – | 0.78
H2030 [4], log10 concentration (uM): -1, siRNA knockdown: negative control siRNA | – | 0.997
H2030 [4], log10 concentration (uM): -2, siRNA knockdown: TEAD1-4 siRNA 1 | – | 0.922
H2030 [4], log10 concentration (uM): -2, siRNA knockdown: TEAD1-4 siRNA 2 | – | 1.12
H2030 [4], log10 concentration (uM): -2, siRNA knockdown: YAP/TAZ siRNA 1 | – | 0.976
H2030 [4], log10 concentration (uM): -2, siRNA knockdown: YAP/TAZ siRNA 2 | – | 0.922
H2030 [4], log10 concentration (uM): -2, siRNA knockdown: negative control siRNA | – | 1.02
KYSE410, siRNA knockdown (Con = control): Con | 4240 | –
KYSE410, siRNA knockdown (Con = control): TEAD1234_si1 | 1050 | –
KYSE410, siRNA knockdown (Con = control): TEAD1234_si2 | 1070 | –
KYSE410, siRNA knockdown (Con = control): YAP_WWTR1_si1 | 1680 | –
KYSE410, siRNA knockdown (Con = control): YAP_WWTR1_si2 | 1190 | –
MIAPACA2 [1], log10 concentration (uM): 0, ectopic expression: YAP S127A | – | 1.05
MIAPACA2 [1], log10 concentration (uM): 0, ectopic expression: empty vector (YAP experiment) | – | 1.01
MIAPACA2 [1], log10 concentration (uM): 0.39794, ectopic expression: YAP S127A | – | 0.984
MIAPACA2 [1], log10 concentration (uM): 0.39794, ectopic expression: empty vector (YAP experiment) | – | 0.743
MIAPACA2 [1], log10 concentration (uM): 0.69897, ectopic expression: YAP S127A | – | 0.977
MIAPACA2 [1], log10 concentration (uM): 0.69897, ectopic expression: empty vector (YAP experiment) | – | 0.542
MIAPACA2 [1], log10 concentration (uM): 1, ectopic expression: YAP S127A | – | 0.913
MIAPACA2 [1], log10 concentration (uM): 1, ectopic expression: empty vector (YAP experiment) | – | 0.25
MIAPACA2 [1], log10 concentration (uM): 1.301029996, ectopic expression: YAP S127A | – | 0.315
MIAPACA2 [1], log10 concentration (uM): 1.301029996, ectopic expression: empty vector (YAP experiment) | – | 0.0583
MIAPACA2 [1], log10 concentration (uM): -0.30103, ectopic expression: YAP S127A | – | 0.946
MIAPACA2 [1], log10 concentration (uM): -0.30103, ectopic expression: empty vector (YAP experiment) | – | 0.996
MIAPACA2 [1], log10 concentration (uM): -0.60206, ectopic expression: YAP S127A | – | 0.915
MIAPACA2 [1], log10 concentration (uM): -0.60206, ectopic expression: empty vector (YAP experiment) | – | 0.98
MIAPACA2 [1], log10 concentration (uM): -1, ectopic expression: YAP S127A | – | 0.969
MIAPACA2 [1], log10 concentration (uM): -1, ectopic expression: empty vector (YAP experiment) | – | 1.05
MIAPACA2 [1], log10 concentration (uM): -2, ectopic expression: YAP S127A | – | 0.992
MIAPACA2 [1], log10 concentration (uM): -2, ectopic expression: empty vector (YAP experiment) | – | 0.994
MIAPACA2 [2], siRNA knockdown (Con = control): Con | 10400 | –
MIAPACA2 [2], siRNA knockdown (Con = control): TEAD1234_si1 | 5670 | –
MIAPACA2 [2], siRNA knockdown (Con = control): TEAD1234_si2 | 5420 | –
MIAPACA2 [2], siRNA knockdown (Con = control): YAP_WWTR1_si1 | 4420 | –
MIAPACA2 [2], siRNA knockdown (Con = control): YAP_WWTR1_si2 | 6970 | –
SW1573, siRNA knockdown (Con = control): Con | 13200 | –
SW1573, siRNA knockdown (Con = control): TEAD1234_si1 | 342 | –
SW1573, siRNA knockdown (Con = control): TEAD1234_si2 | 164 | –
SW1573, siRNA knockdown (Con = control): YAP_WWTR1_si1 | 100 | –
SW1573, siRNA knockdown (Con = control): YAP_WWTR1_si2 | 132 | –
